Results reported in PMC6511888, “Synthesis, Biological Evaluation, and Molecular Modeling Studies of New Thiadiazole Derivatives as Potent P2X7 Receptor Inhibitors” (Frontiers in Chemistry, 2019).

Tests used:
P2X1R = biological target: T1, P2X1R (Mus musculus, UniProt P51576); assay: β,γ-meATP-induced intracellular Ca2+ mobilization in J774 cells; assay type: cell-based; details: 100 μM
T1 construct: endogenous in cells; host or cells: J774 cells
T1 sequence (P51576 1-399): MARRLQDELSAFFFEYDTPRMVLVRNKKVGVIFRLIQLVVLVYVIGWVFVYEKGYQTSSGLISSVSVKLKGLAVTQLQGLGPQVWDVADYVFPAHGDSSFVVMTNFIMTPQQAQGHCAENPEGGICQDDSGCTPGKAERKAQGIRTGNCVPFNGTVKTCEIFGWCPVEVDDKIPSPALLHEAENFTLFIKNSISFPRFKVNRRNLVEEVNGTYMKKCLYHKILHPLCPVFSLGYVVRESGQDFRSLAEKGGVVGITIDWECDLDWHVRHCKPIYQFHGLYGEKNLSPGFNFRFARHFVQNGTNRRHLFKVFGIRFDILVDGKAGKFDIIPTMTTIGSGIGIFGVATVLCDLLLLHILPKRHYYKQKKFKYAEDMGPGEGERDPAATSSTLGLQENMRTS
Procedure: (§1) Mouse peritoneal macrophages, PC12 cells, J774 cells, and HEPG2 cells were analyzed by fluorescence microscopy to measure the intracellular Ca^2+ concentrations ([Ca^2+]i). Cells were incubated with 2 μM Fura-2-AM (Molecular Probes) for 30 min, and the [Ca^2+]i mobilization was measured in the F340/F380 ratios with a FlexStation 3 multimode microplate reader (Molecular Devices). Cells were plated in translucent 96-well plates (BD Falcon) for 15 min and then washed and incubated in a saline solution with 150 NaCl, 5 KCl, 1 MgCl2, 1 CaCl2, and 10 HEPES (pH 7.4) for 30 min before measurements of [Ca^2+]i. The Ca^2+ influx was induced by stimulating cells with P2 receptor agonists. P2 receptor antagonists were added 10 min before P2 receptor agonist addition. […] Ionomycin was considered a positive control, and the other recordings were normalized in relation to the AUC.

P2X3R = assay: α,β-meATP-induced [Ca2+]i shift; assay type: cell-based; details: 100 μM
Procedure: as §1

P2X7R = biological target: T2, P2X7R (Mus musculus, UniProt Q9Z1M0); assay: Whole-cell patch clamp, ATP-induced ionic currents in peritoneal macrophages; assay type: cell-based; details: fixed 500 nM 9f; ATP 100 μM to 25 mM; whole-cell configuration
T2 construct: plated for 24 h before dye uptake assays, whole-cell patch clamp experiments, and IL-1β release assays; endogenous in cells; host or cells: mouse (Swiss Webster) peritoneal macrophages
T2 sequence (Q9Z1M0 1-595): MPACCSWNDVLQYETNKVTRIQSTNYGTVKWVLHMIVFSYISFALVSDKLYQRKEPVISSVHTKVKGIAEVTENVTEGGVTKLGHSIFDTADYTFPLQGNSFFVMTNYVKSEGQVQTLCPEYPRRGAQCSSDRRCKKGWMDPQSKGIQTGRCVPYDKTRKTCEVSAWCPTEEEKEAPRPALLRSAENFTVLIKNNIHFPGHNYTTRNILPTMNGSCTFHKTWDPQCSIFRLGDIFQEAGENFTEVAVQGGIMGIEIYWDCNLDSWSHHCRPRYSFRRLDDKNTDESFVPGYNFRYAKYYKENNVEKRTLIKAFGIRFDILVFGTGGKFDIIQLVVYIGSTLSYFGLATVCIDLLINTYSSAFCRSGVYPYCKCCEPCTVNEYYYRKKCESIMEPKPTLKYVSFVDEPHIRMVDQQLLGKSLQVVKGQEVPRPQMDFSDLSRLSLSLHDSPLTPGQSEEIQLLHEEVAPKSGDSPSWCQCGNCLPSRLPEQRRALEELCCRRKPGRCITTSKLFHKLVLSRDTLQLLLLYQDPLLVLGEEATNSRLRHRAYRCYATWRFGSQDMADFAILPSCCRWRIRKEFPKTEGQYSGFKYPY
Procedure: The whole-cell configuration was used in peritoneal macrophages as previously described (Faria et al., [2005]). All the experiments used bath and pipette solutions with a series resistance set as 6–11 MΩ. Ionic currents with amplitudes < 1,500 pA were not compensated; however, ionic currents above this level were compensated by 88%. The cell capacitance for peritoneal macrophages was (19 ± 1 pF; n = 86), and the recordings were obtained at a holding potential of −60 mV at 37°C.
The saline composition was as follows (in mM): 150 NaCl, 5 KCl, 1 MgCl2, 1 CaCl2, and 10 HEPES (pH 7.4) for the bath solution and 150 KCl, 5 NaCl, 1 MgCl2, 10 HEPES, and 0.1 EGTA (pH 7.4) for the pipette solution (Faria et al., [2018]).
[…] A perfusion chamber (RC-24 chamber, Warner Instrument Corp) operating at a rate of 1 ml/min was used in all experiments (Faria et al., [2018]).

[1] = tested on: carrageenan-induced paw edema; assay: Carrageenan-induced paw edema in mice; assay type: in vivo, mouse; details: 9f 0.001–1 mg/kg intraperitoneally 1 h before carrageenan, edema measured after 60 min
Procedure: (§2) Our protocols using Swiss Webster mice 4–5 weeks old adhered to the Ethical Principles in Animal Experimentation adopted by the Brazilian College of Animal Experimentation and approved by the FIOCRUZ Research Ethics Committee (Faria et al., [2018]) (number LW-5814). Mouse paw edema was stimulated with carrageenan (300 μg/paw) saline suspension for 60 min or ATP (10 mg/paw) for 30 min. Treatment with diclofenac (100 μg/kg), oxidized ATP (100 μg/kg), and analog 9f (0.001–1 mg/kg) was intraperitoneally administered 60 min prior to the […] administration of carrageenan or ATP. A plethysmometer (UGO Basil, Italy) was used to measure the edema before inductor injection, and the relative paw edema increased after carrageenan or ATP action.

ATP-induced paw edema = ATP-induced paw edema in mice; assay type: in vivo, mouse; details: 9f 0.001–1 mg/kg intraperitoneally 1 h before ATP, edema measured after 30 min
Procedure: as §2

- Effect on β,γ-meATP-induced intracellular Ca2+ mobilization (P2X1R): did not reduce
- EC50 of the ATP dose–response curve with fixed inhibitor vs ATP alone (P2X7R): higher
Structure (SMILES): CCOC(=O)c1cnn(-c2nnc(-c3ccccc3Cl)s2)c1N [Compound 9f]
- Effect on activity of P2X3R agonist α,β-meATP (P2X3R): did not reduce
- Carrageenan-induced paw edema [1]: dose-dependently decreased
- ATP-induced paw edema (ATP-induced paw edema): dose-dependently decreased
